In patent US20160281133A1, “STABILIZATION AND ISOLATION OF EXTRACELLULAR NUCLEIC ACIDS” (QIAGEN GMBH, priority 2013, published 2016):
Where a SMILES comes first, the peptide text is derived from it. The star is where a group is joined. Cbz = O=C(OCc1ccccc1)*; CH2F = FC*

Tests used:
[1] = tested on: whole blood samples; assay: DNA size distribution by chip gel electrophoresis (blood cell stability/DNA release); format: cell-based, human; settings: 20 μM in 10 ml K2E blood; day 3 and day 7
Description: To separate the blood plasma from the whole blood, the blood samples were centrifuged for 15 min at 5000 rpm, and the obtained plasma samples were again centrifuged for 10 min at 16.000×g at 4° C.
The circulating, extracellular nucleic acids were purified from the obtained plasma samples using the QIAamp® Circulating NA Kit (QIAGEN, according to the handbook). In brief: • 10 ml sample input; • lysis: 1 ml Proteinase K and 8 ml Buffer ACL (QIAGEN) • binding: 18 ml Buffer ACB (QIAGEN) • wash-steps: unchanged and according to handbook • elution in 60 μl Buffer AVE (QIAGEN)
1.3.1 Measurement of the blood cell stability/DNA release by the determination of DNA size distribution using a chip gel electrophoresis (2100 Bioanalyzer; Agilent Technologies; Inc., USA) according to manufacturer's instruction (see handbook Agilent DNA 7500 and DNA 12000 Kit Guide), but 1.5 μl instead of 1 μl sample were transferred to the wells.
Each tested caspase inhibitor was added to whole blood samples (20 μM end concentration in 10 ml blood; blood was collected into Vacutainer K2E Tubes; BD). The whole blood sample was processed as described in section 1 (plasma preparation and nucleic acid isolation).
The eluted circulating cell-free DNA was separated by size using chip gel electrophoresis (for details on the method see above). […]

[2] = tested on: whole blood samples; assay: 18S DNA duplex real time PCR assay, increase of DNA in plasma of stored blood, example 5; format: cell-based, human; settings: 20 μM caspase inhibitor in whole blood; storage at RT
[3] = in DMSO (highest concentration listed in the cell); cited from earlier work

SMILES: COC(=O)C[C@H](NC(=O)[C@H](C)NC(=O)[C@@H](NC(=O)OCc1ccccc1)C(C)C)C(=O)CF [Z-Val-Ala-Asp(OMe)-FMK] (Cbz-Val-Ala-Asp(OMe)-CH2F)
- ladder-like pattern of bands (release and fragmentation of genomic DNA) compared to controls [1]: reduced ladder-like pattern
- increase of DNA from day 0 to day 3 or 7 [2]: more prominent on day 7
- solubility [3]: 20 mM, add 107 μl DMSO 10 mM, add 214 μl DMSO 5 mM, add 428 μl DMSO
